Experimental data as given in patent US20200337311A1 (priority 2017, published 2020).

test system: Meloidogyne incognita; assay: Meloidogyne incognita in vivo test on cucumber plants (gall rating); conditions: 300 ppm; soil application to cucumber seedlings; 15 days after application; untreated check up to 8
Description: (§1) Meloidogyne incognita: In Vivo Test
Cucumber plants were grown in seedling tray containing mixture of Sand:Soil:FYM:Cocopeat in ratio of 1:1:1:1. One mL of test compound at tested concentration was applied into the soil mixture with the help of micropipette when the cucumber seedlings ten days old. Approximately 2000 freshly hatched second-stage juveniles of Meloidogyne incognita were inoculated. The treated plants were allowed to grow at 27° C. temperature in greenhouse. Observation of gall rating was recorded after 15 days of application. Plants were carefully uprooted and roots were washed thoroughly. The gall rating was observed on 0-10 scale as described by Zeck (1971) as mentioned below: • 0=no galls • 1=very few small galls • 2=numerous small galls • 3=numerous small galls of which some are grown together • 4=numerous small and some big galls • 5=25% of roots severely galled • 6=50% of roots severely galled • 7=75% of roots severely galled • 8=no healthy roots but plant is still green • 9=roots rotting and plant dying • 10=plant and roots dead
recorded less than 3 gall rating in the tests, where there was extensive galling (up to 8) in untreated check.

Row | SMILES | gall rating (0-10 scale, Zeck 1971)
1 | CCO/N=C\c1cnc(SCCC(F)=C(F)F)o1 [Compound 13] | < 3
2 | CCO/N=C/c1cnc(S(=O)(=O)CCC(F)=C(F)F)s1 [Compound 23] | < 3
3 | CC(C)CCO/N=C/c1cnc(SCCC(F)=C(F)F)s1 [Compound 34] | < 3
4 | CCO/N=C/c1cnc([S+]([O-])CCC(F)=C(F)F)o1 (stereo not drawn) [Compound 36] | < 3
5 | CO/N=C(\C)c1cnc(S(=O)(=O)CCC(F)=C(F)F)s1 [Compound 53] | < 3
6 | [O-][S+](CCC(F)=C(F)F)c1ncc(/C=N\OCC2CC2)o1 (stereo not drawn) [Compound 103] | < 3
7 | CO/N=C(\C)c1cnc([S+]([O-])CCC(F)=C(F)F)o1 (stereo not drawn) [Compound 130] | < 3
8 | CCO/N=C(\C)c1cnc(SCCC(F)=C(F)F)o1 [Compound 132] | < 3
9 | CO/N=C(/C)c1cnc(S(=O)(=O)CCC(F)=C(F)F)o1 [Compound 134] | < 3
10 | Cc1csc(S(=O)(CCC(F)=C(F)F)=NC#N)n1 (stereo not drawn) [Compound 183] | < 3
11 | [O-][S+](CCC(F)=C(F)F)c1ncc(-c2ncon2)s1 (stereo not drawn) [Compound 213] | < 3
12 | CCO/N=C\c1cnc(S(=O)(=O)CCC=C(F)F)s1 [Compound 233] | < 3
13 | CO/N=C/c1cnc(SCCC=C(F)F)s1 [Compound 234] | < 3
14 | CO/N=C\c1cnc(SCCC=C(F)F)s1 [Compound 235] | < 3
15 | CO/N=C\c1cnc(S(=O)(=O)CCC=C(F)F)s1 [Compound 236] | < 3
16 | CCO/N=C/c1cnc(S(=O)(=O)CCC=C(F)F)s1 [Compound 237] | < 3

Row | SMILES | gall rating (0-10 scale, Zeck 1971)
17 | CO/N=C/c1oc(SCCC(F)=C(F)F)nc1C [Compound 238] | < 3
18 | CO/N=C(/c1oc([S+]([O-])CCC(F)=C(F)F)nc1C)C(C)C (stereo not drawn) [Compound 273] | < 3
19 | [O-][S+](CCC(F)=C(F)F)c1ncc(C(F)F)s1 (stereo not drawn) [Compound 326] | < 3
20 | N#Cc1cnc(SCCC(F)=C(F)F)s1 [Compound 327] | < 3
21 | N#Cc1cnc([S+]([O-])CCC(F)=C(F)F)s1 (stereo not drawn) [Compound 328] | < 3
22 | O=S(=O)(CCC(F)=C(F)F)c1ncc(C(F)F)s1 [Compound 329] | < 3
23 | FC(F)=C(F)CCSc1ncc(C(F)F)o1 [Compound 330] | < 3
24 | N#Cc1cnc(SCCC(F)=C(F)F)o1 [Compound 331] | < 3
25 | N#Cc1cnc(S(=O)(=O)CCC(F)=C(F)F)s1 [Compound 332] | < 3
26 | N#Cc1cnc([S+]([O-])CCC(F)=C(F)F)o1 (stereo not drawn) [Compound 333] | < 3
27 | Cc1nc([S+]([O-])CCC(F)=C(F)F)sc1C(F)F (stereo not drawn) [Compound 337] | < 3
28 | Cc1nc([S+]([O-])CCC(F)=C(F)F)sc1C#N (stereo not drawn) [Compound 338] | < 3
29 | Cc1nc(S(=O)(=O)CCC(F)=C(F)F)sc1C#N [Compound 339] | < 3
30 | Cc1nc(S(=O)(=O)CCC(F)=C(F)F)sc1C(F)F [Compound 340] | < 3
31 | Cc1nc([S+]([O-])CCC(F)=C(F)F)oc1C#N (stereo not drawn) [Compound 348] | < 3
32 | Cc1nc(S(=O)(=O)CCC(F)=C(F)F)oc1C(F)F [Compound 350] | < 3

test system: Meloidogyne incognita; assay: Meloidogyne incognita (root-knot nematode) in vitro test; conditions: 300 ppm; 50 juveniles in 500 μL water, 25° C.; counted at 48, 72 and 96 h; no mortality in untreated check
Description: Example 1: Meloidogyne incognita (Root-Knot Nematode): In Vitro Test
The test compounds at a concentration of 300 ppm were introduced into 500 μL of distilled water containing 50 Meloidogyne incognita juveniles into 24-well plates. The suspension was lightly shaken for uniform mixing of compounds. The test plates were covered with lids, and were kept for incubation at 25° C. temperature and 90% relative humidity. […] Compounds
as §1

Row | SMILES | mortality [%]
33 | CO/N=C/c1cnc(SCCC=C(F)F)o1 [Compound 290] | > 90
